# Test: Treatment-emergent adverse events, multiple dose (part 2)
# Format: in vivo, human
# Settings: for Abdominal pain, Events / Abdominal pain, n (%) / Blood creatine phosphate increased, Events / Blood creatine phosphate increased, n (%) / Blood triglyceride increased, Events / Blood triglyceride increased, n (%) / C-reactive protein increased, Events / C-reactive protein increased, n (%) / Diarrhea, Events / Diarrhea, n (%) / Dizziness, Events / Dizziness, n (%) / Feeling hot, Events / Feeling hot, n (%) / Gastrointestinal disorders, Events / Gastrointestinal disorders, n (%) / General disorders and administration site conditions, Events / General disorders and administration site conditions, n (%) / Headache, Events / Headache, n (%) / High-density lipoprotein cholesterol decreased, Events / High-density lipoprotein cholesterol decreased, n (%) / Investigations, Events / Investigations, n (%) / Nausea, Events / Nausea, n (%) / Nervous system disorders, Events / Nervous system disorders, n (%) / Oropharyngeal pain, Events / Oropharyngeal pain, n (%) / Participants with any TEAE, Events / Participants with any TEAE, n (%) / Pyrexia, Events / Pyrexia, n (%) / Rash, Events / Rash, n (%) / Respiratory, thoracic, and mediastinal disorders, Events / Respiratory, thoracic, and mediastinal disorders, n (%) / Skin and subcutaneous tissue disorders, Events / Skin and subcutaneous tissue disorders, n (%) / Somnolence, Events / Somnolence, n (%) / Vomiting, Events / Vomiting, n (%): n = 8
# Protocol: In part 1, Japanese participants were randomized to receive placebo or single dose of ensitrelvir (20, 70, 250, 500, 1,000, and 2,000 mg given to cohorts A, B, C, D, E, and J, respectively), suspended in 0.5% methylcellulose, in the fasted state. Additionally, in cohort C, the effect of food on the pharmacokinetics of ensitrelvir was investigated in a 2-group, 2-period crossover design by administering placebo or ensitrelvir (250 mg) in the fasted or fed (high-fat/high-calorie) state. In part 2, Japanese participants were randomized to receive placebo or multiple doses of ensitrelvir, suspended in 0.5% methylcellulose. The multiple-dose regimens were as follows: once-daily doses of ensitrelvir 375 mg on day 1 and 125 mg on days 2 to 5 (cohort F), or 750 mg on day 1 and 250 mg on days 2 to 6 (cohort G) in the fasted state. White participants were randomized to receive placebo or multiple doses of ensitrelvir. The multiple-dose regimens were as follows: once-daily doses of ensitrelvir 375 mg on day 1 and 125 mg on days 2 to 5 (cohort H). Each cohort included 11 participants. In cohort G, the effect of ensitrelvir on the pharmacokinetics of midazolam (syrup) was evaluated in an open label self-controlled crossover design. Midazolam 2 mg alone was administered 2 days prior to initiating ensitrelvir administration (on day −2) and midazolam was coadministered on day 6 with placebo or ensitrelvir in the fasted state to participants following once-daily doses for 5 days of placebo (days 1 to 5) or ensitrelvir (750 mg on day 1 and 250 mg on days 2–5).
# The nature, frequency, and severity of TEAEs were evaluated and recorded.
# [1] = Cohort F 375/125 mg, Japanese, listed as ensitrelvir
# [2] = Cohort G 750/250 mg + midazolam, Japanese
# [3] = Cohort G 750/250 mg + midazolam, Japanese, listed as ensitrelvir
# [4] = Cohort H 125 mg, white, listed as ensitrelvir
compound,measurement,setting,value
"Cn1cnc(Cn2c(=O)[nH]/c(=N\c3cc4cn(C)nc4cc3Cl)n(Cc3cc(F)c(F)cc3F)c2=O)n1 [Ensitrelvir, ensitrelvir fumaric acid]","Abdominal pain, Events","Cohort F 375/125 mg, Japanese",0
same,"Abdominal pain, n (%)","Cohort F 375/125 mg, Japanese",0
same,"Blood creatine phosphate increased, Events","Cohort F 375/125 mg, Japanese",0
same,"Blood creatine phosphate increased, n (%)","Cohort F 375/125 mg, Japanese",0
same,"Blood triglyceride increased, Events","Cohort F 375/125 mg, Japanese",0
same,"Blood triglyceride increased, n (%)","Cohort F 375/125 mg, Japanese",0
same,"C-reactive protein increased, Events","Cohort F 375/125 mg, Japanese",0
same,"C-reactive protein increased, n (%)","Cohort F 375/125 mg, Japanese",0
same,"Diarrhea, Events","Cohort F 375/125 mg, Japanese",5
same,"Diarrhea, n (%)","Cohort F 375/125 mg, Japanese",4 (50.0)
same,"Dizziness, Events","Cohort F 375/125 mg, Japanese",0
same,"Dizziness, n (%)","Cohort F 375/125 mg, Japanese",0
same,"Feeling hot, Events","Cohort F 375/125 mg, Japanese",0
same,"Feeling hot, n (%)","Cohort F 375/125 mg, Japanese",0
same,"Gastrointestinal disorders, Events","Cohort F 375/125 mg, Japanese",5
same,"Gastrointestinal disorders, n (%)","Cohort F 375/125 mg, Japanese",4 (50.0)
same,"General disorders and administration site conditions, Events","Cohort F 375/125 mg, Japanese",0
same,"General disorders and administration site conditions, n (%)","Cohort F 375/125 mg, Japanese",0
same,"Headache, Events","Cohort F 375/125 mg, Japanese",0
same,"Headache, n (%)","Cohort F 375/125 mg, Japanese",0
same,"High-density lipoprotein cholesterol decreased, Events","Cohort F 375/125 mg, Japanese",7
same,"High-density lipoprotein cholesterol decreased, n (%)","Cohort F 375/125 mg, Japanese",7 (87.5)
same,"Investigations, Events","Cohort F 375/125 mg, Japanese",7
same,"Investigations, n (%)","Cohort F 375/125 mg, Japanese",7 (87.5)
same,"Nausea, Events","Cohort F 375/125 mg, Japanese",0
same,"Nausea, n (%)","Cohort F 375/125 mg, Japanese",0
same,"Nervous system disorders, Events","Cohort F 375/125 mg, Japanese",0
same,"Nervous system disorders, n (%)","Cohort F 375/125 mg, Japanese",0
same,"Oropharyngeal pain, Events","Cohort F 375/125 mg, Japanese",0
same,"Oropharyngeal pain, n (%)","Cohort F 375/125 mg, Japanese",0
same,"Participants with any TEAE, Events","Cohort F 375/125 mg, Japanese",12
same,"Participants with any TEAE, n (%)","Cohort F 375/125 mg, Japanese",7 (87.5)
same,"Pyrexia, Events","Cohort F 375/125 mg, Japanese",0
same,"Pyrexia, n (%)","Cohort F 375/125 mg, Japanese",0
same,"Rash, Events","Cohort F 375/125 mg, Japanese",0
same,"Rash, n (%)","Cohort F 375/125 mg, Japanese",0
same,"Respiratory, thoracic, and mediastinal disorders, Events","Cohort F 375/125 mg, Japanese",0
same,"Respiratory, thoracic, and mediastinal disorders, n (%)","Cohort F 375/125 mg, Japanese",0
same,"Skin and subcutaneous tissue disorders, Events","Cohort F 375/125 mg, Japanese",0
same,"Skin and subcutaneous tissue disorders, n (%)","Cohort F 375/125 mg, Japanese",0
same,"Somnolence, Events","Cohort F 375/125 mg, Japanese",0
same,"Somnolence, n (%)","Cohort F 375/125 mg, Japanese",0
same,"Vomiting, Events","Cohort F 375/125 mg, Japanese",0
same,"Vomiting, n (%)","Cohort F 375/125 mg, Japanese",0
same,"Diarrhea, n (%)",[1],4/8
same,"High-density lipoprotein cholesterol decreased, n (%)",[1],7/8
same,"Abdominal pain, Events",[2],0
same,"Abdominal pain, n (%)",[2],0
same,"Blood creatine phosphate increased, Events",[2],1
same,"Blood creatine phosphate increased, n (%)",[2],1 (12.5)
same,"Blood triglyceride increased, Events",[2],2
same,"Blood triglyceride increased, n (%)",[2],2 (25.0)
same,"C-reactive protein increased, Events",[2],1
same,"C-reactive protein increased, n (%)",[2],1 (12.5)
same,"Diarrhea, Events",[2],6
same,"Diarrhea, n (%)",[2],4 (50.0)
same,"Dizziness, Events",[2],1
same,"Dizziness, n (%)",[2],1 (12.5)
same,"Feeling hot, Events",[2],1
same,"Feeling hot, n (%)",[2],1 (12.5)
same,"Gastrointestinal disorders, Events",[2],8
same,"Gastrointestinal disorders, n (%)",[2],4 (50.0)
same,"General disorders and administration site conditions, Events",[2],2
same,"General disorders and administration site conditions, n (%)",[2],2 (25.0)
same,"Headache, Events",[2],6
same,"Headache, n (%)",[2],4 (50.0)
same,"High-density lipoprotein cholesterol decreased, Events",[2],7
same,"High-density lipoprotein cholesterol decreased, n (%)",[2],7 (87.5)
same,"Investigations, Events",[2],11
same,"Investigations, n (%)",[2],7 (87.5)
same,"Nausea, Events",[2],1
same,"Nausea, n (%)",[2],1 (12.5)
same,"Nervous system disorders, Events",[2],11
same,"Nervous system disorders, n (%)",[2],5 (62.5)
same,"Oropharyngeal pain, Events",[2],0
same,"Oropharyngeal pain, n (%)",[2],0
same,"Participants with any TEAE, Events",[2],33
same,"Participants with any TEAE, n (%)",[2],8 (100)
same,"Pyrexia, Events",[2],1
same,"Pyrexia, n (%)",[2],1 (12.5)
same,"Rash, Events",[2],1
same,"Rash, n (%)",[2],1 (12.5)
same,"Respiratory, thoracic, and mediastinal disorders, Events",[2],0
same,"Respiratory, thoracic, and mediastinal disorders, n (%)",[2],0
same,"Skin and subcutaneous tissue disorders, Events",[2],1
same,"Skin and subcutaneous tissue disorders, n (%)",[2],1 (12.5)
same,"Somnolence, Events",[2],4
same,"Somnolence, n (%)",[2],3 (37.5)
same,"Vomiting, Events",[2],1
same,"Vomiting, n (%)",[2],1 (12.5)
same,"Diarrhea, n (%)",[3],4/8
same,"Headache, n (%)",[3],4/8
same,"High-density lipoprotein cholesterol decreased, n (%)",[3],7/8
same,"Somnolence, n (%)",[3],3/8
same,"Abdominal pain, Events","Cohort H 125 mg, white",1
same,"Abdominal pain, n (%)","Cohort H 125 mg, white",1 (12.5)
same,"Blood creatine phosphate increased, Events","Cohort H 125 mg, white",0
same,"Blood creatine phosphate increased, n (%)","Cohort H 125 mg, white",0
same,"Blood triglyceride increased, Events","Cohort H 125 mg, white",0
same,"Blood triglyceride increased, n (%)","Cohort H 125 mg, white",0
same,"C-reactive protein increased, Events","Cohort H 125 mg, white",0
same,"C-reactive protein increased, n (%)","Cohort H 125 mg, white",0
same,"Diarrhea, Events","Cohort H 125 mg, white",6
same,"Dizziness, Events","Cohort H 125 mg, white",0
same,"Dizziness, n (%)","Cohort H 125 mg, white",0
same,"Feeling hot, Events","Cohort H 125 mg, white",0
same,"Feeling hot, n (%)","Cohort H 125 mg, white",0
same,"Gastrointestinal disorders, Events","Cohort H 125 mg, white",7
same,"Gastrointestinal disorders, n (%)","Cohort H 125 mg, white",4 (50.0)
same,"General disorders and administration site conditions, Events","Cohort H 125 mg, white",0
same,"General disorders and administration site conditions, n (%)","Cohort H 125 mg, white",0
same,"Headache, Events","Cohort H 125 mg, white",4
same,"Headache, n (%)","Cohort H 125 mg, white",2 (25.0)
same,"High-density lipoprotein cholesterol decreased, Events","Cohort H 125 mg, white",7
same,"High-density lipoprotein cholesterol decreased, n (%)","Cohort H 125 mg, white",7 (87.5)
same,"Investigations, Events","Cohort H 125 mg, white",7
same,"Investigations, n (%)","Cohort H 125 mg, white",7 (87.5)
same,"Nausea, Events","Cohort H 125 mg, white",0
same,"Nausea, n (%)","Cohort H 125 mg, white",0
same,"Nervous system disorders, Events","Cohort H 125 mg, white",4
same,"Nervous system disorders, n (%)","Cohort H 125 mg, white",2 (25.0)
same,"Oropharyngeal pain, Events","Cohort H 125 mg, white",1
same,"Oropharyngeal pain, n (%)","Cohort H 125 mg, white",1 (12.5)
same,"Participants with any TEAE, Events","Cohort H 125 mg, white",19
same,"Participants with any TEAE, n (%)","Cohort H 125 mg, white",8 (100)
same,"Pyrexia, Events","Cohort H 125 mg, white",0
same,"Pyrexia, n (%)","Cohort H 125 mg, white",0
same,"Rash, Events","Cohort H 125 mg, white",0
same,"Rash, n (%)","Cohort H 125 mg, white",0
same,"Respiratory, thoracic, and mediastinal disorders, Events","Cohort H 125 mg, white",1
same,"Respiratory, thoracic, and mediastinal disorders, n (%)","Cohort H 125 mg, white",1 (12.5)
same,"Skin and subcutaneous tissue disorders, Events","Cohort H 125 mg, white",0
same,"Skin and subcutaneous tissue disorders, n (%)","Cohort H 125 mg, white",0
same,"Somnolence, Events","Cohort H 125 mg, white",0
same,"Somnolence, n (%)","Cohort H 125 mg, white",0
same,"Vomiting, Events","Cohort H 125 mg, white",0
same,"Vomiting, n (%)","Cohort H 125 mg, white",0
same,"Diarrhea, n (%)",[4],4/8
same,"Headache, n (%)",[4],2/8
same,"High-density lipoprotein cholesterol decreased, n (%)",[4],7/8
same,course of the decrease in HDL-C levels,single- and multiple-dose administration,transient and generally reverted to the baseline values

# From paper PMC9578392, “Safety, Tolerability, and Pharmacokinetics of the Novel Antiviral Agent Ensitrelvir Fumaric Acid, a SARS-CoV-2 3CL Protease Inhibitor, in Healthy Adults” (Antimicrobial Agents and Chemotherapy, 2022)
